{"source": "patent US20220033397A1", "about": "“PHARMACEUTICAL COMPOUNDS AND THEIR USE AS INHIBITORS OF UBIQUITIN SPECIFIC PROTEASE 19 (USP19)” (ALMAC DISCOVERY LIMITED, priority 2018, published 2022)", "data": [{"molecular_target": "T1, Full-length USP19 (Homo sapiens, UniProt O94966)", "T1 construct": "Full-length USP19 was purchased from Boston Biochem (E-576); purchased Boston Biochem E-576", "T1 sequence (O94966 1-1318)": "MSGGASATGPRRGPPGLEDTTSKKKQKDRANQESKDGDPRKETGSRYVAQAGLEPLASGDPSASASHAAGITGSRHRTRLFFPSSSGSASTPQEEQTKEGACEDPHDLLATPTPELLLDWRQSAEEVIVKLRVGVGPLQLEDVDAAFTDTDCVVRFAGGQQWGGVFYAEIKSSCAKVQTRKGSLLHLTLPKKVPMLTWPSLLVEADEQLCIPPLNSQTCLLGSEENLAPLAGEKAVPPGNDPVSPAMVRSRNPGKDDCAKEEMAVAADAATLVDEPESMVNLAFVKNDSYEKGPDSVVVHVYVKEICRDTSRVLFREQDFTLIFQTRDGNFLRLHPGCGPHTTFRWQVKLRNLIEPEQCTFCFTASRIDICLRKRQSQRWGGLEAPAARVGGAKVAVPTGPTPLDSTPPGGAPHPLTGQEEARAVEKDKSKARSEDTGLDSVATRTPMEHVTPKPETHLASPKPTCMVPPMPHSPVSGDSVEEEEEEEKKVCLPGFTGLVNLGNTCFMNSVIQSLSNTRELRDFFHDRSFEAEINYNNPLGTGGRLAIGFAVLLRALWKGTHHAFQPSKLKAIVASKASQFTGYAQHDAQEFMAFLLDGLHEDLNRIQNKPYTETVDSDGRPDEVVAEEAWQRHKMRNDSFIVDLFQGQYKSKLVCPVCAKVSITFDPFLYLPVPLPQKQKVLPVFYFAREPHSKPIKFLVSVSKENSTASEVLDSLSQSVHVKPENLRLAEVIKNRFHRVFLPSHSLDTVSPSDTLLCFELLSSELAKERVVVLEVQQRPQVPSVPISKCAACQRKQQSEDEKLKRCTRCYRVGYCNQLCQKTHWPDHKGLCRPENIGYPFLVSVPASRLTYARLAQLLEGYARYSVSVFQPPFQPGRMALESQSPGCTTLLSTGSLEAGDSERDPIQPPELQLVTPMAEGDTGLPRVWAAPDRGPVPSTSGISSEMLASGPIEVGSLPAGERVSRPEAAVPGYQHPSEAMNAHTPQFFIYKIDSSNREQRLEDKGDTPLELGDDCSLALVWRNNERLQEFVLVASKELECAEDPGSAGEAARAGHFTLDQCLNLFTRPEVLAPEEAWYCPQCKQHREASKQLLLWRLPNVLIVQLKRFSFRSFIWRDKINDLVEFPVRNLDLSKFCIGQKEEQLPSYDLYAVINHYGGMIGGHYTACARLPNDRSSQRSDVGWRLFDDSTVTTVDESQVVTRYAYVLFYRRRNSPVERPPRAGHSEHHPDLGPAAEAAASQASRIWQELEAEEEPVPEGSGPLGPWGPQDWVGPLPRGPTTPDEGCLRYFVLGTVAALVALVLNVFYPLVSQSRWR", "assay": "USP19 fluorescence polarisation (FP) homogeneous assay with Ubiquitin-Lys-TAMRA substrate", "format": "biochemical", "details": "2.5 nM USP19, 30 min pre-incubation, average of at least two duplicate experiments", "outline": "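Full-length USP19 preincubated 30 min at RT with inhibitor (200 μM to 2 μM series, 8–18 points) before adding 500 nM Ubiquitin-Lys-TAMRA substrate.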", "units": {"IC50": "µM"}, "values": [{"molecule": "C[C@H](CC1CCCCC1)C(=O)N1CCC(O)(Cn2cnc3ccncc3c2=O)C2(CCCC2)C1", "note": "(stereo partly drawn) [Example 157, 3-((7-((R)-3-Cyclohexyl-2-methylpropanoyl)-10-hydroxy-7-azaspiro[4.5]decan-10-yl)methyl)pyrido[4,3-d]pyrimidin-4(3H)-one]", "IC50": "0.5 to 5"}, {"molecule": "O=C(N1CC[C@@](O)(Cn2cnc(-c3ccccc3)cc2=O)C2(CCCC2)C1)N1CCCN1c1ccccc1", "note": "[Example 299, (S)-3-((10-Hydroxy-7-(2-phenylpyrazolidine-1-carbonyl)-7-azaspiro[4.5]decan-10-yl)methyl)-6-phenylpyrimidin-4(3H)-one]", "IC50": "0.5 to 5"}, {"molecule": "O=C(N1CCC(O)(Cn2cnc(-c3ccccc3)cc2=O)C2(CCCCC2)C1)N1CCOC[C@H]1c1ccccc1", "note": "(stereo partly drawn) [Example 296, 3-((5-Hydroxy-2-((R)-3-phenylmorpholine-4-carbonyl)-2-azaspiro[5.5]undecan-5-yl)methyl)-6-phenylpyrimidin-4(3H)-one]", "IC50": "< 0.5"}, {"molecule": "C[C@H](CC(F)(F)F)C(=O)N1CCC(O)(Cn2cnc3nc(N4CCN(C)CC4)ncc3c2=O)C2(CCCC2)C1", "note": "(stereo partly drawn) [Example 163, 3-((10-Hydroxy-7-((R)-4,44-trifluoro-2-methylbutanoyl)-7-azaspiro[4.5]decan-10-yl)methyl)-7-(4-methylpiperazin-1-yl)pyrimido[4,5-d]pyrimidin-4(3H)-one]", "IC50": "0.5 to 5"}, {"molecule": "O=C(N1CCC(O)(Cn2cnc(-c3ccccc3)cc2=O)C2(CCCC2)C1)N1CCCC1c1ccncc1", "note": "(centres unmarked) [Example 249, 3-((10-Hydroxy-7-(2-(pyridin-4-yl)pyrrolidine-1-carbonyl)-7-azaspiro[4.5]decan-10-yl)methyl)-6-phenylpyrimidin-4(3H)-one]", "IC50": "0.5 to 5"}, {"molecule": "COCC1CCN(CC2(O)CCN(C(=O)[C@H](C)CC(F)(F)F)CC23CCCC3)C(=O)C1", "note": "(stereo partly drawn) [Example 98, 1-((10-Hydroxy-7-((R)-4,4,4-trifluoro-2-methylbutanoyl)-7-azaspiro[4.5]decan-10-yl)methyl)-4-(methoxymethyl)piperidin-2-one]", "IC50": "5 to 50"}, {"molecule": "O=C(N1CCC(O)(Cn2cnc(-c3ccccc3)cc2=O)C2(CCCC2)C1)N1CCOCC1CC1CC1", "note": "(centres unmarked) [Example 229, 3-((7-(3-(Cyclopropylmethyl)morpholine-4-carbonyl)-10-hydroxy-7-azaspiro[4.5]decan-10-yl)methyl)-6-phenylpyrimidin-4(3H)-one]", "IC50": "5 to 50"}, {"molecule": "C[C@H](CC1CCCCC1)C(=O)N1CCC(O)(Cn2cc(C(=O)O)ncc2=O)C2(CCCC2)C1", "note": "(stereo partly drawn) [Example 9, 4-((7-((R)-3-Cyclohexyl-2-methylpropanoyl)-10-hydroxy-7-azaspiro[4.5]decan-10-yl)methyl)-5-oxo-4,5-dihydropyrazine-2-carboxylic acid]", "IC50": "0.5 to 5"}, {"molecule": "O=C(N1CC[C@@](O)(Cn2cnc(-c3ccccc3C(F)F)cc2=O)C2(CCCC2)C1)N1CCNC[C@H]1c1ccccc1", "note": "[Example 366, 6-(2-(Difluoro-methyl)phenyl)-3-(((S)-10-hydroxy-7-((R)-2-phenylpiperazine-1-carbonyl)-7-aza-spiro[4.5]decan-10-yl)methyl)pyrimidin-4(3H)-one]", "IC50": "< 0.5"}, {"molecule": "O=C(N1CC2CC2C1)N1CCC(O)(Cn2cnc(-c3ccccc3)cc2=O)C2(CCCC2)C1", "note": "(centres unmarked) [Example 209, 3-((7-(3-Azabicyclo[3.1.0]hexane-3-carbonyl)-10-hydroxy-7-azaspiro[4.5]decan-10-yl)methyl)-6-phenylpyrimidin-4(3H)-one]", "IC50": "50 to 250"}, {"molecule": "O=C(N1CCC(O)(Cn2cnc3c(cnn3-c3ccccc3)c2=O)C2(CCCC2)C1)N1CCNC[C@H]1c1ccccc1", "note": "(stereo partly drawn) [Example 178, 5-((10-Hydroxy-7-((R)-2-phenylpiperazine-1-carbonyl)-7-azaspiro[4.5]decan-10-yl)methyl)-1-phenyl-1,5-dihydro-4H-pyrazolo[3,4-d]pyrimidin-4-one]", "IC50": "< 0.5"}, {"molecule": "CN(Cc1cccc(C#N)c1)C(=O)N1CCC(O)(Cn2cnc(-c3ccccc3)cc2=O)C2(CCCC2)C1", "note": "(centres unmarked) [Example 251, N-(3-Cyanobenzyl)-10-hydroxy-N-methyl-10-((6-oxo-4-phenylpyrimidin-1(6H)-yl)methyl)-7-azaspiro[4.5]decane-7-carboxamide]", "IC50": "0.5 to 5"}, {"molecule": "C[C@@H]1CNCCN1C(=O)N1CCC(O)(Cn2cnc(-c3ccccc3)cc2=O)C2(CCCC2)C1", "note": "(stereo partly drawn) [Example 207, 3-((10-Hydroxy-7-((R)-2-methylpiperazine-1-carbonyl)-7-azaspiro[4.5]decan-10-yl)methyl)-6-phenylpyrimidin-4(3H)-one]", "IC50": "50 to 250"}, {"molecule": "C[C@H](CC1CCCCC1)C(=O)N1CCC(O)(Cn2cc(N=S(C)(C)=O)c(Cl)cc2=O)C2(CCCC2)C1", "note": "(stereo partly drawn) [Example 69, 4-Chloro-1-((7-((R)-3-cyclohexyl-2-methylpropanoyl)-10-hydroxy-7-azaspiro[4.5]decan-10-yl)methyl)-5-((dimethyl(oxo)-λ^6-sulfaneylidene)amino)pyridin-2(1H)-one]", "IC50": "0.5 to 5"}, {"molecule": "O=C(NCc1c(F)cccc1F)N1CC[C@@](O)(Cn2cnc(-c3ccccc3)cc2=O)C2(CCCC2)C1", "note": "[Example 302, (S)—N-(2,6-Difluorobenzyl)-10-hydroxy-10-((6-oxo-4-phenylpyrimidin-1(6H)-yl)methyl)-7-azaspiro[4.5]decane-7-carboxamide]", "IC50": "< 0.5"}, {"molecule": "C[C@H](CC1CCCCC1)C(=O)N1CCC(O)(Cn2cnc3ccsc3c2=O)C2(CCCC2)C1", "note": "(stereo partly drawn) [Example 144, 3-((7-((R)-3-Cyclohexyl-2-methylpropanoyl)-10-hydroxy-7-azaspiro[4.5]decan-10-yl)methyl)thieno[3,2-d]pyrimidin-4(3H)-one]", "IC50": "0.5 to 5"}, {"molecule": "O=C1Cn2ccnc2CN1CC1(O)CCN(C(=O)N2CCNC[C@H]2c2ccccc2)CC12CCCC2", "note": "(stereo partly drawn) [Example 119, 7-((10-Hydroxy-7-((R)-2-phenylpiperazine-1-carbonyl)-7-azaspiro[4.5]decan-10-yl)methyl)-7,8-dihydroimidazo[1,2-a]pyrazin-6(5H)-one]", "IC50": "0.5 to 5"}, {"molecule": "O=C(NCC1CC(F)(F)C1)N1CC[C@@](O)(Cn2cnc(-c3ccccc3)cc2=O)C2(CCCC2)C1", "note": "[Example 307, (S)—N-((3,3-Difluorocyclobutyl)methyl)-10-hydroxy-10-((6-oxo-4-phenylpyrimidin-1(6H)-yl)methyl)-7-azaspiro[4.5]decane-7-carboxamide]", "IC50": "< 0.5"}, {"molecule": "O=C(N1CCC(O)(Cn2cc(F)c(-c3ccccc3)cc2=O)C2(CCCC2)C1)N1CCNC[C@H]1c1ccccc1", "note": "(stereo partly drawn) [Example 331, 5-Fluoro-1-((10-hydroxy-7-((R)-2-phenylpiperazine-1-carbonyl)-7-azaspiro[4.5]decan-10-yl)methyl)-4-phenylpyridin-2(1H)-one]", "IC50": "< 0.5"}, {"molecule": "N=S1(=O)CCN(C(=O)N2CC[C@@](O)(Cn3cnc(-c4ccccc4)cc3=O)C3(CCCC3)C2)C(c2ccccc2)C1", "note": "(stereo partly drawn) [Example 334, 3-(((10S)-10-Hydroxy-7-(1-imino-1-oxido-3-phenyl-1λ^6-thiomorpholine-4-carbonyl)-7-azaspiro[4.5]decan-10-yl)methyl)-6-phenylpyrimidin-4(3H)-one]", "IC50": "< 0.5"}, {"molecule": "CN(C)C(=O)C1CN(C[C@@]2(O)CCN(C(=O)[C@H](CO)CC3CCCCC3)CC2(C)C)C(=O)CC1c1ccccc1", "note": "(stereo partly drawn) [Example 25, 1-(((R)-1-((S)-3-Cyclohexyl-2-(hydroxymethyl)propanoyl)-4-hydroxy-3,3-dimethylpiperidin-4-yl)methyl)-N,N-dimethyl-6-oxo-4-phenylpiperidine-3-carboxamide]", "IC50": "5 to 50"}, {"molecule": "C[C@H](CC1CCCCC1)C(=O)N1CCC(O)(Cn2cc(-c3ccncc3)ncc2=O)C2(CCCC2)C1", "note": "(stereo partly drawn) [Example 20, 1-((7-((R)-3-Cyclohexyl-2-methylpropanoyl)-10-hydroxy-7-azaspiro[4.5]decan-10-yl)methyl)-5-(pyridin-4-yl)pyrazin-2(1H)-one]", "IC50": "0.5 to 5"}, {"molecule": "O=C(N1CC[C@@](O)(Cn2cnc(-c3ccccc3F)cc2=O)C2(CCCC2)C1)N1CCNC[C@H]1c1ccccc1", "note": "[Example 314, 6-(2-Fluorophenyl)-3-(((S)-10-hydroxy-7-((R)-2-phenylpiperazine-1-carbonyl)-7-azaspiro[4.5]decan-10-yl)methyl)pyrimidin-4(3H)-one]", "IC50": "< 0.5"}]}]}
